Results from ChEMBL document CHEMBL1240309 (Nat Chem Biol, 2006).
Calls of active or inactive are those of the source. No cut-off for these calls is given here.

Assays:
Caenorhabditis elegans [1] = assay: Antiapoptotic activity against Caenorhabditis elegans ced-3(n2438) mutant assessed as number of extra cells in anterior pharynx at 50 to 250 mM dissolved in soybean oil; format: functional, organism-based
Caenorhabditis elegans [2] = assay: Antiapoptotic activity against Caenorhabditis elegans ced-4(n2273) mutant assessed as number of extra cells in anterior pharynx L3 and L4 larvae at 250 mM dissolved in soybean oil; format: functional, organism-based
Caenorhabditis elegans [3] = assay: Antiapoptotic activity against Caenorhabditis elegans ced-3(n2447) S446L mutant assessed as number of extra cells in anterior pharynx L3 and L4 larvae at 250 mM dissolved in soybean oil; format: functional, organism-based
Caenorhabditis elegans [4] = assay: Antiapoptotic activity against Caenorhabditis elegans ced-9(n1950) mutant assessed as number of extra cells in anterior pharynx L3 and L4 larvae at 250 mM dissolved in soybean oil; format: functional, organism-based
Caenorhabditis elegans [5] = assay: Antiapoptotic activity against Caenorhabditis elegans ced-3(n2436) mutant assessed as number of extra cells in anterior pharynx L3 and L4 larvae at 250 mM dissolved in soybean oil; format: functional, organism-based
Caenorhabditis elegans [6] = assay: Antiapoptotic activity against Caenorhabditis elegans ced-3(n2438) G474R mutant assessed as number of extra cells in anterior pharynx L3 and L4 larvae at 250 mM dissolved in soybean oil; format: functional, organism-based
Caenorhabditis elegans [7] = assay: Antiapoptotic activity against Caenorhabditis elegans ced-3(n2433) mutant assessed as number of extra cells in anterior pharynx L3 and L4 larvae at 250 mM dissolved in soybean oil; format: functional, organism-based
[8] = Octanol-water partition coefficient, log P of the compound; format: physicochemical
Caenorhabditis elegans [9] = assay: Antiapoptotic activity against Caenorhabditis elegans ced-8(n1891) mutant assessed as number of extra cells in anterior pharynx L3 and L4 larvae at 250 mM dissolved in soybean oil; format: functional, organism-based

**Q.** With CCCCC(CC)COC(=O)c1ccccc1C(=O)OCC(CC)CCCC (centres undefined) as the compound, how does the Activity (Caenorhabditis elegans [1]) read?
**A.** inactive

**Q.** Which results are given for Clc1ccc(Cl)cc1 [1,4-DICHLOROBENZENE]?
**A.** Activity (Caenorhabditis elegans [2]): Active; Activity (Caenorhabditis elegans [3]): Active; Activity (Caenorhabditis elegans [4]): Active; Activity (Caenorhabditis elegans [5]): Active; Activity (Caenorhabditis elegans [6]): Active; Activity (Caenorhabditis elegans [7]): Active; logP [8]: 3.5; Activity (Caenorhabditis elegans [9]): Active
